The results in this text go back to ChEMBL document CHEMBL1154815, “3D QSAR studies on ketoamides of human cathepsin K inhibitors based on two different alignment methods” (Eur J Med Chem, 2010).

The target of the test is T1, Cathepsin K (Homo sapiens, UniProt P43235).
T1 sequence (P43235 whole entry): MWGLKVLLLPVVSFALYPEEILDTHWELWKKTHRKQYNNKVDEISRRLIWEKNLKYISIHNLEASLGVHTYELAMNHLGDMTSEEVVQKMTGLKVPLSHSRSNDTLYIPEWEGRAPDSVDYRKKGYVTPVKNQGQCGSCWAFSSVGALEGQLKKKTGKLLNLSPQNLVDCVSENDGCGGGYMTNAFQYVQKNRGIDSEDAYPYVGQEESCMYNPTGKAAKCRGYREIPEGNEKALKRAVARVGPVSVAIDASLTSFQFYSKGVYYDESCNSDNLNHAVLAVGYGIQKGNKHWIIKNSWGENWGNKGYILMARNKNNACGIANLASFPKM
Briefly: Inhibition of human cathepsin K.

The structures appear in SMILES notation.

What is called IC50 is the concentration at which inhibition is half-maximal. A high value points to lower potency. Take `CCCC[C@H](NC(=O)O[C@@H]1CN(Cc2ccccc2)CC1(C)C)C(=O)C(=O)N[C@H](C)c1ccccc1`: half-maximal inhibition (IC50) required 20.9 nM.

Turning to `CCCC[C@H](NC(=O)O[C@@H]1CN(C(=O)c2ccno2)CC1(C)C)C(=O)C(=O)N[C@H](C)c1ccccc1`, half-maximal inhibition (IC50) required 8.91 nM. Same read-out and setting: under `CCCC[C@H](NC(=O)O[C@@H](Cc1nnc(-c2ccccc2)o1)C(C)C)C(=O)C(=O)N[C@H](C)c1ccccc1` stands 0.832 nM. As to `CCCC[C@H](NC(=O)O[C@@H]1CN(C(=O)Nc2ccccc2)CC1(C)C)C(=O)C(=O)N[C@H](C)c1ccccc1`, the 50% inhibitory concentration (IC50) is 4.27 nM. `CCCC[C@H](NC(=O)O[C@@H]1CN(C(=O)Cc2ccccc2)CC1(C)C)C(=O)C(=O)N[C@H](C)c1ccccc1` gave a 50% inhibitory concentration (IC50) of 3.02 nM.

As to `CCCC[C@H](NC(=O)O[C@@H]1CN(S(=O)(=O)c2ccccc2)CC1(C)C)C(=O)C(=O)N[C@H](C)c1ccccc1`, the IC50 is 8.32 nM.

Consider `CCCC[C@H](NC(=O)O[C@@H]1CN(S(=O)(=O)Cc2ccccc2)CC1(C)C)C(=O)C(=O)N[C@H](C)c1ccccc1`, for which the IC50 is 17 nM.

`CCCC[C@H](NC(=O)O[C@@H]1CN(C(=O)c2ccc3cc[nH]c3c2)CC1(C)C)C(=O)C(=O)N[C@H](C)c1ccccc1` gave an IC50 of 1.7 nM. The same measure, in the same setting: the result for `CCCC[C@H](NC(=O)O[C@@H]1CN(C(=O)c2c(C)noc2C)CC1(C)C)C(=O)C(=O)N[C@H](C)c1ccccc1` reads 15.1 nM. In turn, `CCCC[C@H](NC(=O)O[C@@H]1CN(C(=O)c2cc3ccccc3s2)CC1(C)C)C(=O)C(=O)N[C@H](C)c1ccccc1` gave an IC50 of 2.82 nM. Usually pIC50 stands for the negative decadic logarithm of the IC50, by convention in mol/L. The low end stands for a high IC50, the high end for a low IC50. `CCCC[C@H](NC(=O)O[C@H](Cn1cnc(-c2ccc(C(F)(F)F)cc2)c1)C(C)(C)C)C(=O)C(=O)Nc1ccn[nH]1` returned a pIC50 of 10.6. In turn, `CCCC[C@H](NC(=O)O[C@@H]1CN(C(=O)CCCc2ccccc2)CC1(C)C)C(=O)C(=O)N[C@H](C)c1ccccc1` had an IC50 of 26.9 nM. Still for that read-out and setting: under `CCCC[C@H](NC(=O)O[C@@H]1CN(C(=O)Oc2ccccc2)CC1(C)C)C(=O)C(=O)N[C@H](C)c1ccccc1` stands 28.8 nM; under `CCCC[C@H](NC(=O)O[C@@H]1CN(C(=O)c2ccccc2)CC1(C)C)C(=O)C(=O)N[C@H](C)c1ccccc1`, 64.6 nM; under `CCCC[C@H](NC(=O)O[C@@H]1CN(C(=O)OCCc2ccccc2)CC1(C)C)C(=O)C(=O)N[C@H](C)c1ccccc1`, 32.4 nM. `CCCC[C@H](NC(=O)O[C@@H]1CN(C(=O)NCc2ccccc2)CC1(C)C)C(=O)C(=O)N[C@H](C)c1ccccc1` had a 50% inhibitory concentration (IC50) of 3.8 nM. Still for that read-out and setting: under `CCCC[C@H](NC(=O)O[C@@H]1CN(C(=O)Oc2ccc3ccccc3c2)CC1(C)C)C(=O)C(=O)N[C@H](C)c1ccccc1` stands 57.5 nM; under `CCCC[C@H](NC(=O)O[C@@H]1CN(C(=O)OCc2ccc(-c3ccccc3)cc2)CC1(C)C)C(=O)C(=O)N[C@H](C)c1ccccc1`, 2.09 nM; under `CCCC[C@H](NC(=O)O[C@H](Cn1cc(-c2ccc(C(F)(F)F)cc2)cn1)C(C)(C)C)C(=O)C(=O)Nc1ccn[nH]1`, 0.0257 nM. On the same count and under the same terms, under `CCCC[C@H](NC(=O)O[C@@H]1CN(C(=O)c2ccc(C(F)(F)F)cc2)CC1(C)C)C(=O)C(=O)Nc1cc[nH]n1` stands 0.417 nM; under `CCCC[C@H](NC(=O)O[C@H](Cc1nnc(-c2ccc(F)cc2)o1)C(C)(C)C)C(=O)C(=O)N[C@H]1CCCNC1=O`, 0.646 nM. The same measure, in the same setting: under `CCCC[C@H](NC(=O)O[C@@H]1CN(C(=O)c2cccnc2)CC1(C)C)C(=O)C(=O)N[C@H](C)c1ccccc1` stands 14.1 nM.

As for `CCCC[C@H](NC(=O)O[C@@H]1CN(C(=O)NCCc2ccccc2)CC1(C)C)C(=O)C(=O)N[C@H](C)c1ccccc1`, 6.61 nM corresponded to half-maximal inhibition (IC50). The same measure, in the same setting: the result for `CCCC[C@H](NC(=O)O[C@@H]1CN(C(=O)Oc2ccc(-c3ccccc3)cc2)CC1(C)C)C(=O)C(=O)N[C@H](C)c1ccccc1` reads 5.01 nM. The same measure, in the same setting: under `CCCC[C@H](NC(=O)O[C@@H]1CN(C(=O)c2ccc3ccccc3c2)CC1(C)C)C(=O)C(=O)N[C@H](C)c1ccccc1` stands 1.58 nM.

As to `CCCC[C@H](NC(=O)O[C@@H]1CN(C(=O)c2ccc(-c3ccccc3)cc2)CC1(C)C)C(=O)C(=O)N[C@H](C)c1ccccc1`, the IC50 was 6.92 nM.
